Laboratory results taken from a melting point compilation (Tetko et al.; mined from patent text by program, amines drawn as free bases though some values may be those of a salt).

SMILES	melting point [°C]
CN(C)C(=O)Sc1ccc(C(=O)c2cccc(C#N)c2)cc1	150
O=C(O)c1cn(C2CC2)c2cc(Cl)c(F)c(Cl)c2c1=O	277 to 278
O=C(O)C1c2cc(Br)ccc2COc2ccccc21 (configuration not stated)	187 to 189
O=S(CCCCCl)Cc1ccc(Cl)cc1 (configuration not stated)	56 to 58
O=C1CCC(O)=C1Cc1cccc(CCNS(=O)(=O)c2ccc(Cl)cc2)c1	176 to 178
O=C(CCCCCOc1cc(-c2ccccc2)c2ccccc2n1)N1CCCC1	52 to 54
CN1CCC(=O)C(C2c3ccccc3Oc3ccccc32)C1 (configuration not stated)	160 to 162
CCC(=O)c1c(C)c(NC(=O)CC(C)(C)C)c(C)c2c1OCC2c1ccc(C(C)C)cc1 (configuration not stated)	163 to 164
NS(=O)(=O)c1ccc(-c2[nH]c3ccccc3c2-c2ccc(Cl)cc2)cc1	298 to 300
CC(c1cn(C)c2ccccc12)N(O)C(N)=O (configuration not stated)	149 to 150
N#Cc1c2c(c3c(c1N1CCCCC1)Cc1ccccc1-3)Cc1ccccc1-2	186 to 188
CC(C)(O)c1cc2cc(O)c(Cl)c(Cl)c2s1	171 to 173
COC(=O)Cc1ccccc1OCc1ccc(N(Cc2nc(-c3ccccc3)oc2C)C(=O)OC(C)(C)C)cc1	85 to 86
CN1CCC(c2c[nH]c3ccc(OS(=O)(=O)c4ccccc4F)cc23)CC1	180 to 182
COc1cc(C(C)=O)c(F)cc1Cl	96.5 to 98.5
OCCNc1nc(Cl)nc2c1ncn2C1CC(O)C(CO)O1 (configuration not stated)	167 to 168
CCN(CC)OC(C(=O)O)(C(=O)O)c1ccccc1	> 250

SMILES	melting point [°C]
NC(=O)Cc1c(Cl)cnc2c(NC(=O)c3c(Cl)cccc3Cl)cccc12	> 300
COC(=O)c1cc2cc(C=O)ccc2[nH]1	208
O=C(NC1CCCCC1)NS(=O)(=O)c1ccc(CCNC(=O)N2CCCCC2=O)cc1	197 to 199
O=C(O)c1cnn(-c2ccc(F)cc2)c1Cl	230 to 231
COC(=O)CN=C(Cc1ccccc1)N1CC2C(=O)CCC(c3ccccc3)(c3ccccc3)C2C1 (configuration not stated)	147
N=C(N)c1cccc(S(=O)(=O)c2ccc(OC[C@@H]3C[C@@H](CC(=O)O)C(=O)N3CCCc3ccccc3)cc2)c1	205 to 207
NC(=O)CCNc1ccc([N+](=O)[O-])cc1OCCO	184
CC(CN1CCCC1)N1c2ccccc2Sc2ccc(C(=O)Nc3ccccc3)cc21 (racemic)	163
NC(c1ccco1)P(O)O (configuration not stated)	221
N#CCc1c[nH]c2ccc(NC(N)=O)cc12	200 to 204
C=CCn1nnc2cc3c(=O)n(C(C)Cn4ncnn4)nnc3cc2c1=O (configuration not stated)	159 to 161
CCC(=O)c1ccc(S(=O)(=O)c2ccccc2)cc1	83 to 84
CNC(C)=C(C(=O)OC)C(=O)c1ccccc1	75 to 77
Cn1nc(C(O)c2ccccc2)nc1NCC(O)COc1cccc(CN2CCCCC2)c1 (configuration not stated)	154 to 157
C=C(C)C(=O)Nc1ccc(O)c(C(=O)O)c1	218
O=C1CCC(c2cc(F)c(OC3CCN(C4CCC4)CC3)c(F)c2)=NN1	162 to 164
O=C(OC1CCN(Cc2cccc([N+](=O)[O-])c2)CC1)c1ccccc1	54 to 55

The remaining lines, values ahead:

melting point [°C]	SMILES
219 to 220	N#CCCNC(=O)c1cccc(-c2ccc3c(n2)N(c2ccc(Cl)cc2Cl)CC3)c1
149 to 150	CS(=O)c1ccc(C2=C(c3ccccc3)C(=O)C(C)(C)O2)c(F)c1 (configuration not stated)
173 to 174	CN(C)CCNC(=O)Cc1ccc(NC(=O)CCc2nc(-c3ccc4ccccc4c3)no2)cc1
> 300	CN(C)C=Nc1ccc(-c2cc3c(Nc4cccc(Cl)c4)ncnc3[nH]2)cc1
91 to 93	C=CCn1cc(C(O)(c2ccc3c(cnn3-c3ccc(F)cc3)c2)C(F)(F)F)c2ccn(C)c(=O)c21 (configuration not stated)
130 to 132	CCCN1CCN(c2cccc3ccc(NC(=O)c4ccc(Cl)cc4)cc23)CC1
240 to 242	CC(C)NC(=O)c1cc(Cl)nc(Cl)c1NC(=O)c1cc(C(F)(F)F)nn1-c1ncccc1Cl
85 to 87	CCCCc1nn(-c2cc(N)ccc2Cl)c(=O)n1Cc1ccc(-c2cc(CCC)ccc2S(=O)(=O)NC(C)(C)C)cc1F
225 to 228	COc1ccc(-c2csc(Nc3ncccn3)n2)cc1OC
183 to 184	CS(=O)(=O)c1ccc(-c2cnc(-c3ccc(F)cc3)s2)s1
197 to 198	Cc1csc(NC(=O)C2(CN3CCN(c4nc(C)cs4)C3=O)C=CC=CC2)n1 (configuration not stated)
218 to 219	Cc1cc(F)ccc1-c1nc(NC2CCCCC2)nc2c1ccc(=O)n2-c1c(F)cccc1F
127 to 130	c1ccc(-c2cn3ncsc3n2)cc1
225 to 228	COc1c(-c2cccs2)ccc2c(OC)c(-c3cccs3)ccc12
153	CCOC(=O)c1ccc(-c2cnc3c(c2)N(Cc2ccccc2OC(F)(F)F)CCN3)cc1
83.5 to 85	Cc1cc(Oc2csc(C(F)(F)F)c2)nc(-c2ccc(C(F)(F)F)cc2)n1
211 to 214	C(=C\c1cc(/C=C/c2ccc3cc[nH]c3c2)n[nH]1)/c1ccc(OCc2ccccn2)cc1
261 to 263	O=Cc1cc(O)cc2cc(-c3ccc(O)cc3)oc12
